Data from US20250154169A1, “COMPOUNDS AND METHODS FOR MODULATING SPLICING” (REMIX THERAPEUTICS INC., priority 2021, published 2025).

Columns and labels:
HTT mRNA = assay: Splicing RT-qPCR assay, HTT canonical (CJ) and alternative (AJ) junction mRNA; type: cell-based, human; conditions: Homo sapiens, A673 or K562 cells, 24 hours compound treatment; for IC50: 24 h, read-out: HTT CJ (IC50, decrease in canonical junction mRNA); for AC50: read-out: HTT AJ (AC50, increase in alternative junction mRNA)
Protocol: (§1) Compounds described herein were used to modulate RNA transcript abundance in cells. The expression of a target mRNA was measured by detecting the formation of an exon-exon junction in the canonical transcript (CJ). A compound mediated exon-inclusion event was detected by observing an increase in formation of a new junction with an alternative exon (AJ). Real-time qPCR assays were used to detect these splicing switches and interrogate the potency of various compounds towards different target genes. A high-throughput real time quantitative PCR (RT-qPCR) assay was developed to measure these two isoforms of the mRNA (CJ and AJ) for exemplary genes, such as HTT, SMN2, and MYB, together with a control housekeeping gene, GAPDH or GUSB or PPIA, used for normalization. Briefly, the A673 or K562 cell line was treated with various compounds described herein (e.g., compounds of Formula (I)). After treatment, the levels of the HTT, MYB, or SMN2 mRNA targets were determined from each sample of cell lysate by cDNA synthesis followed by qPCR.
(§2) • Cells-to-CT 1-step kit: ThermoFisher A25602, Cells-to-CT lysis reagent: ThermoFisher 4391851C, TaqMan™ Fast Virus 1-Step Master Mix: ThermoFisher 4444436 • GAPDH: VIC-PL, ThermoFisher 4326317E (Assay: Hs99999905_m1)—used for K562/suspension cell lines • GUSB: VIC-PL, ThermoFisher 4326320E (Assay: Hs99999908_m1)—used for K562/suspension cell lines • PPIA: VIC-PL, ThermoFisher 4326316E (Assay: Hs99999904_m1)—used for A673/adherent cell lines
(§3) The A673 cell line was cultured in DMEM with 10% FBS. Cells were diluted with full growth media and plated in a 96-well plate (15,000 cells in 100 ul media per well). The plate was incubated at 37° C. with 5% CO2 for 24 hours to allow cells to adhere. An 11-point 3-fold serial dilution of the compounds was made in DMSO then diluted in media in an intermediate plate. Compounds were transferred from the intermediate plate to the cell plate with the top dose at a final concentration of 10 uM in the well. Final DMSO concentration was kept at or below 0.25%. The cell plate was returned to the incubator at 37° C. with 5% CO2 for an additional 24 hours.
(§4) The K562 cell line was cultured in IMDM with 10% FBS. For K562, cells were diluted with full growth media and plated in either a 96-well plate (50,000 cells in 50 uL media per well) or a 384-well plate (8,000-40,000 cells in 45 uL media per well). An 11-point 3-fold serial dilution of the compounds were made in DMSO then diluted in media in an intermediate plate. Compound was transferred from the intermediate plate to the cell plate with the top dose at a final concentration of 10 uM in the well. Final DMSO concentration was kept at or below 0.25%. Final volume was 100 uL for 96-well plate and 50 uL for 384-well plate. The cell plate was then placed in an incubator at 37° C. with 5% CO2 for 24 hours.
(§5) The cells were then gently washed with 50 uL-100 uL cold PBS before proceeding to addition of lysis buffer. 30 uL-50 uL of room temperature lysis buffer with DNAse I (and optionally RNAsin) was added to each well. Cells were shaken/mixed thoroughly at room temperature for 5-10 minutes for lysis to take place and then 3 uL-5 uL of room temperature stop solution was added and wells were shaken/mixed again. After 2-5 minutes, the cell lysate plate was transferred to ice for RT-qPCR reaction setup. The lysates could also be frozen at −80° C. for later use.
(§6) In some cases, a direct lysis buffer was used. An appropriate volume of 3× lysis buffer (10 mM Tris, 150 mM NaCl, 1.5%-2.5% Igepal and 0.1-1 U/uL RNAsin, pH 7.4) was directly added to either K562 or A673 cells in media and mixed by pipetting 3 times. The plates were then incubated at room temperature with shaking/rocking for 20-50 minutes to allow for lysis to take place. After this time, the cell lysate plate was transferred to ice to set up for the RT-qPCR reactions. The lysates could also be frozen at −80° C. for later use. […]

MYB mRNA = assay: Splicing RT-qPCR assay, MYB canonical (CJ) and alternative (AJ) junction mRNA; type: cell-based, human; conditions: Homo sapiens, 24 h, A673 or K562 cells, 24 hours compound treatment, RT-qPCR; for AC50: read-out: MYB AJ (AC50, increase in alternative junction mRNA); for IC50: read-out: MYB CJ (IC50, decrease in canonical junction mRNA)
Protocol: as §1, §2, §3, §4, §5, §6

IC50 (HTT mRNA)	IC50 (MYB mRNA)	Structure (SMILES)	AC50 (HTT mRNA)	AC50 (MYB mRNA)
< 0.1 µM	< 0.1 µM	C=Cn1cc2c(N3CCC(NC)CC3)ccc(C(=O)Nc3cc(F)c4nc(C)cn4c3)c2n1 [Compound 502, 2-ethenyl-N-{8-fluoro-2-methylimidazo[1,2-a]pyridin-6-yl}-4-[4-(methylamino)piperidin-1-yl]indazole-7-carboxamide]	0.1 to 1 µM	< 0.1 µM
0.1 to 1 µM	< 0.1 µM	C=Cn1cc2c(N3CCC(NCC)CC3)ccc(C(=O)Nc3cc(F)c4nc(C)cn4c3)c2n1 [Compound 503, 2-ethenyl-4-[4-(ethylamino)piperidin-1-yl]-N-{8-fluoro-2-methylimidazo[1,2-a]pyridin-6-yl}indazole-7-carboxamide]	< 0.1 µM	< 0.1 µM
1 to 10 µM	1 to 10 µM	COCc1nc2c(F)cc(NC(=O)c3ccc(N4CCNCC4)c4cn(C)nc34)cc2o1 [Compound 504, N-[4-fluoro-2-(methoxymethyl)-1,3-benzoxazol-6-yl]-2-methyl-4-(piperazin-1-yl) indazole-7-carboxamide]	1 to 10 µM	1 to 10 µM
1 to 10 µM	0.1 to 1 µM	CCn1cc2c(OC3CCNCC3)ccc(C(=O)Nc3cc(F)c4nc(C)cn4c3)c2n1 [Compound 505, 2-ethyl-N-{8-fluoro-2-methylimidazo[1,2-a]pyridin-6-yl}-4-(piperidin-4-yloxy) indazole-7-carboxamide]	1 to 10 µM	0.1 to 1 µM
1 to 10 µM	0.1 to 1 µM	Cc1cn2cc(NC(=O)c3ccc(N4CCNCC4)c4cn(C)nc34)nc(C#N)c2n1 [Compound 507, N-{8-cyano-2-methylimidazo[1,2-a]pyrazin-6-yl}-2-methyl-4-(piperazin-1-yl) indazole-7-carboxamide]	1 to 10 µM	0.1 to 1 µM
< 0.1 µM	< 0.1 µM	CCn1cc2c(N3CCC(CC)(N(C)C)CC3)ccc(C(=O)Nc3cc(F)c4nc(C)cn4c3)c2n1 [Compound 508, 4-[4-(dimethylamino)-4-ethylpiperidin-1-yl]-2-ethyl-N-{8-fluoro-2-methylimidazo[1,2-a]pyridin-6-yl}indazole-7-carboxamide]	0.1 to 1 µM	< 0.1 µM
> 10 µM	1 to 10 µM	Cc1nc2c(F)cc(NC(=O)c3ccc(N4CCNCC4)c4cn(C)nc34)cc2[nH]1 [Compound 509]	> 10 µM	1 to 10 µM
1 to 10 µM	0.1 to 1 µM	COCCn1cc2c(N3CCNCC3)ccc(C(=O)Nc3cn4cc(C)nc4c(OC)n3)c2n1 [Compound 510, N-{8-methoxy-2-methylimidazo[1,2-a]pyrazin-6-yl}-2-(2-methoxyethyl)-4-(piperazin-1-yl) indazole-7-carboxamide]	1 to 10 µM	0.1 to 1 µM
0.1 to 1 µM	0.1 to 1 µM	Cc1nc2c(C)cc(NC(=O)c3ccc(N4CCNCC4)c4cn(C)nc34)nc2o1 [Compound 511, N-{2,7-dimethyl-[1,3]oxazolo[5,4-b]pyridin-5-yl}-2-methyl-4-(piperazin-1-yl) indazole-7-carboxamide]	0.1 to 1 µM	0.1 to 1 µM
1 to 10 µM	0.1 to 1 µM	CCn1cc2c([C@@]34CCNCC3C4)ccc(C(=O)Nc3cc(F)c4nc(C)cn4c3)c2n1 (stereo partly shown) [Compound 513]	> 10 µM	0.1 to 1 µM
0.1 to 1 µM	< 0.1 µM	Cn1cc2c(N3CCNCC3)ccc(C(=O)Nc3cc(F)c4nc(CF)oc4c3)c2n1 [Compound 514, N-[4-fluoro-2-(fluoromethyl)-1,3-benzoxazol-6-yl]-2-methyl-4-(piperazin-1-yl) indazole-7-carboxamide]	0.1 to 1 µM	< 0.1 µM
0.1 to 1 µM	< 0.1 µM	CCn1cc2c(N3CCC(CC)(NC)CC3)ccc(C(=O)Nc3cc(F)c4nc(C)cn4c3)c2n1 [Compound 515, 2-ethyl-4-[4-ethyl-4-(methylamino)piperidin-1-yl]-N-{8-fluoro-2-methylimidazo[1,2-a]pyridin-6-yl}indazole-7-carboxamide]	0.1 to 1 µM	< 0.1 µM
1 to 10 µM	0.1 to 1 µM	CCN(CC)C1(C)CCN(c2ccc(C(=O)Nc3cc(F)c4nc(C)cn4c3)c3nn(CC)cc23)CC1 [Compound 517, 4-[4-(diethylamino)-4-methylpiperidin-1-yl]-2-ethyl-N-{8-fluoro-2-methylimidazo[1,2-a]pyridin-6-yl}indazole-7-carboxamide trifluoroacetic acid]	> 10 µM	0.1 to 1 µM
1 to 10 µM	0.1 to 1 µM	Cc1cn2cc(NC(=O)c3ccc(N4CCNCC4)c4cn(C)nc34)ccc2n1 [Compound 518, 2-methyl-N-{2-methylimidazo[1,2-a]pyridin-6-yl}-4-(piperazin-1-yl) indazole-7-carboxamide]	1 to 10 µM	< 0.1 µM
1 to 10 µM	< 0.1 µM	CCN[C@@H]1CCN(c2ccc(C(=O)Nc3cc(F)c4nc(C)cn4c3)c3nn(C)cc23)C1 [Compound 520, 4-[(3R)-3-(ethylamino)pyrrolidin-1-yl]-N-{8-fluoro-2-methylimidazo[1,2-a]pyridin-6-yl}-2-methylindazole-7-carboxamide]	1 to 10 µM	< 0.1 µM
1 to 10 µM	< 0.1 µM	Cc1cn2cc(NC(=O)c3ccc(N4CC[C@@H](NCC5CC5)C4)c4cn(C)nc34)cc(F)c2n1 [Compound 522, 4-[(3R)-3-[(cyclopropylmethyl)amino]pyrrolidin-1-yl]-N-{8-fluoro-2-methylimidazo[1,2-a]pyridin-6-yl}-2-methylindazole-7-carboxamide]	1 to 10 µM	0.1 to 1 µM
> 10 µM	< 0.1 µM	Cc1cn2cc(NC(=O)c3ccc(N4CC[C@@H](NC(C)C)C4)c4cn(C)nc34)cc(F)c2n1 [Compound 524, N-{8-fluoro-2-methylimidazo[1,2-a]pyridin-6-yl}-4-[(3R)-3-(isopropylamino)pyrrolidin-1-yl]-2-methylindazole-7-carboxamide]	> 10 µM	< 0.1 µM
0.1 to 1 µM	< 0.1 µM	CCn1cc2c(N3CCC(C)(NC4CC4)CC3)ccc(C(=O)Nc3cc(F)c4nc(C)cn4c3)c2n1 [Compound 525, 4-[4-(cyclopropylamino)-4-methylpiperidin-1-yl]-2-ethyl-N-{8-fluoro-2-methylimidazo[1,2-a]pyridin-6-yl}indazole-7-carboxamide]	0.1 to 1 µM	< 0.1 µM

Structure (SMILES)	IC50 (HTT mRNA)	IC50 (MYB mRNA)	AC50 (HTT mRNA)	AC50 (MYB mRNA)
CCn1cc2c(C3=CCNCC3)ccc(C(=O)Nc3cc(F)c4nc(C)cn4c3)c2n1 [Compound 506, 2-ethyl-N-{8-fluoro-2-methylimidazo[1,2-a]pyridin-6-yl}-4-(1,2,3,6-tetrahydropyridin-4-yl) indazole-7-carboxamide]	0.1 to 1 µM	0.1 to 1 µM	1 to 10 µM	0.1 to 1 µM
